Test system: S. pombe yeast cells
Experiment: Respirometric assessment of viability of S. pombe yeast cells treated with toxicant (oxygen uptake, phosphorescent oxygen probe)
Assay type: cell-based
Details: S. pombe cells incubated with different concentrations of toxicant, aliquots at different time intervals; FIG. 5
Procedure: A solid-state oxygen probe comprising a thin film polymer coating of the phosphorescent dye platinum(II)-tetrakis(pentafluorophenyl)porphine (PtTFPP) and polycarbonate was used with the device 1 shown in FIG. 1. One milligram of PtTFPP is dissolved in 0.01% (w/v) solution of polycarbonate (M.ca. 60 000) in chloroform. One microlitre aliquotes of this solution were dispensed to the microwells and allowed to air dry for 10 minutes to produce thin film phosphorescent oxygen-sensitive coating inside the microwells.
S. pombe yeast cells were incubated with different concentrations of cadmium nitrate toxicant. Two μl aliquots were taken from each sample at different time intervals, and placed in the wells of microwell chambers coated with a PtTFPP-polycarbonate solid-state oxygen probe. The respiration profiles of samples were monitored as described in Example 1 above, together with a control sample containing the same concentration of test cells, but without the presence of a toxicant. The levels of oxygen uptake by each sample is evaluated on the basis of time profiles of the phosphorescent signal (initial slopes), compared to those obtained in the control sample. […] This could be extended to compare cells growing in the presence of necessary growth factors, undergoing survival factor deprivation, or undergoing apoptosis.

O=[N+]([O-])[O-].O=[N+]([O-])[O-].[Cd+2] [cadmium nitrate]
oxygen uptake / initial slope of phosphorescent signal time profile, compared to control sample (cell viability): decrease in the initial slope and oxygen uptake with respect to control sample

From patent US7138270B2, “Assay device and method for chemical or biological screening” (University College Cork—National University of Ireland, Cork, priority 2002, dated 2006)
